Measured values: patent publication US20220160713A1, “SELECTIVE INHIBITOR OF PROTEIN ARGININE […] 5 (PRMT5)” (PRELUDE THERAPEUTICS, INCORPORATED, priority 2019, published 2022)
Values after ≈ are worked out from the molar mass of the structure shown. “Also recorded” adds a separate entry of the source.

Experiments:
[1] = Dynamic vapor sorption (DVS); assay type: physicochemical
Description: The dynamic vapor sorption experiments can be done with a VTI SGA-Cx100 Symmetric Vapor Sorption Analyzer. The moisture uptake profile is completed in three cycles of 10% RH increments with adsorption from 5% to 95% RH, followed by desorption of 10% increments from 95% to 5%. The equilibration criteria are 0.0050 wt % in 5 minutes with a maximum equilibration time of 180 minutes. All adsorption and desorption are performed at room temperature (21-22° C.). No pre-drying step is applied for the samples.

[2] = Gravimetric solubility estimate in water; assay type: physicochemical; conditions: thermodynamic from solid
physchem = conditions: 25 °C, thermodynamic from solid
Description: Compounds are first dispersed in freshly prepared FaSSIF (http://biorelevant.com/site_media/upload/documents/How_to_make_FaSSIF_FeSSIF_and_FaSSGF.pdf) buffer in 1 mg/mL respectively, and the standard samples are prepared by preparing 1 mg/mL of test compounds in DMSO. The compounds are then sufficient mixed by vortex mixer for 30 sec, and agitated at 25° C. using 300 rpm form 4 hour in thermo mixer. After incubation, the prepared samples are centrifuged at 10000 rpm for 10 min to remove the undissolved solid, the resulting supernatants are applied to HPLC. The actual concentrations of the compounds are evaluated by measuring the peak area, and the solubility (S) of compounds is calculated according to following equation:
S=Csmp=Cstd*(Asmp/Astd)*(Vstd/Vsmp)
Where C is the sample concentration in μg/mL, A is the peak area, and V is the injection volume.

[3] = system: Symmetric Di-Methyl Arginine (sDMA) marks in Granta-519 cell line; assay: Cellular sDMA western blot in Granta cells; assay type: cell-based; conditions: Homo sapiens, 72 h, 3 days
Granta-519 cells = assay: Cell proliferation assay on Granta-519 cells (CCK-8); assay type: cell-based; conditions: Homo sapiens, 240 h; Granta-519 cell line, day 10; read-out: Prolif. IC50
Description: Granta-519 cells are maintained in PRMI 1640 (Corning Cellgro, Catalog #: 10-040-CV) medium supplemented with 10% v/v FBS (GE Healthcare, Catalog #: SH30910.03). Formula I is dissolved in DMSO to make 10 mM stocks and stored at −20° C. Nine-point, 3-fold serial dilutions are made with DMSO with top concentration at 1 mM (working stocks).
On day of experiment, compound working stocks are further diluted at 1:50 with fresh medium in 96 well plate, and 10 μL of diluted drugs are added to a new 96 well plate for proliferation assay. Cells growing at exponential phase are spun down at 1500 rpm for 4 min and resuspend in fresh medium to reach a density of 0.5×10^6 cells/ml. 200 ul of cells are added to 96 well plate containing diluted drugs and incubated for 3 days. DMSO is used a vehicle control.
One day 3, 10 μL of Cell Counting Kit-8 (CCK-8, Jojindo, CK04-13) solution is added to a new 96 well plate. […] Plates are incubated in CO2 incubator for 2 hours and OD450 values are measured with a microplate reader (iMark microplate reader, Bio-Rad). […]
Percentage of viable cells, relative to DMSO vehicle control, is calculated and plotted in Graphpad Prism ([Inhibitor] vs. normalized response−Variable slope) to determine proliferation IC50 values on day 10.

[4] = Rat non-crossover PK study; assay type: in vivo, rat (SD, male, non-fasted); conditions: 1 mg/kg p.o.
Description: In a rat (SD, male, non-fasted) non-crossover PK study, the compound of Formula I was dosed at 1 mg/kg (DMA: 20% HPBCD=5:95, solution) via i.v. administration (N=3) and 1 mg/kg (0.5% Na CMC+0.5% Tween80, solution) via oral gauge (p.o.) (N=3).

[5] = system: Granta-519 mouse xenograft; assay: Tumor growth inhibition in Granta-519 mouse xenograft model; assay type: in vivo
Description: (§1) Granta-519 cells was maintained in DMEM medium supplemented with 10% fetal bovine serum and 2 mM L-Glutamine at 37° C. in an atmosphere of 5% CO2 in air. Cells in exponential growth phase were harvested and 1×10^7 cells in 0.1 mL of PBS with Matrigel (1:1) were injected subcutaneously at the right lower flank region of each mouse for tumor development. The treatments were started when the mean tumor size reaches approximately 300-400 mm^3. […] Formula I or vehicle (0.5% Na CMC+0.5% Tween80, suspension) were administered orally (QD for Formula I, QD for vehicle) at a dose of 30 mg/kg and 50 mg/kg for 19 and 16 days, respectively. Body weights and tumor size were measured every 3 to 4 days after randomization. Animals were euthanized 12 hours after last dosing, and blood and tumor samples were collected for analysis.

[6] = system: sDMA in Granta-519 tumor samples; assay: sDMA levels in tumor samples of Granta-519 mouse xenograft (western blot); assay type: in vivo
Description: as §1
To measure sDMA levels in tumor samples, tumors from each mouse were weighted and homogenized in RIPA buffer supplemented with protease inhibitor (cOmplete™, EDTA-free Protease Inhibitor Cocktail, Roche). Lysate were centrifuged at 14,000 rpm for 30 min at 4° C. to remove debris. Total protein concentrations of lysate were determined by BCA assay (ThermoFisher Scientific, Catalog #: 23225). Equal amount of total proteins from each tumor were separated on SDS-PAGE gel, and sDMA levels were determined by WB as described previously.

[7] = room temperature, normal humidity range (40-50% RH)

Row | SMILES | change of form, XRPD before and after DVS [1] | water adsorbed (adsorption/desorption isotherms) ([1]; at about 95% humidity) [%] | water adsorbed (adsorption/desorption isotherms) [1, 7] [%] | solubility [2] [µg/mL] | further results
1 | C[C@@]1(O)[C@@H]([C@H](O)c2ccc(Cl)c(Cl)c2)O[C@@H](n2ccc3c(N)ncnc32)[C@@H]1O.Cl [Formula IB, Form II] | no change in Form | ~6 | ~3 | – | –
2 | C[C@@]1(O)[C@@H]([C@H](O)c2ccc(Cl)c(Cl)c2)O[C@@H](n2ccc3c(N)ncnc32)[C@@H]1O.Cl [Formula IB, (2R,3S,4R,5R)-5-(4-amino-7H-pyrrolo[2,3-d]pyrimidin-7-yl)-2-((R)-(3,4-dichlorophenyl)(hydroxy)methyl)-3-methyltetrahydrofuran-3,4-diol, hydrochloride salt] | – | – | – | ~800 | –
3 | C[C@@]1(O)[C@@H]([C@H](O)c2ccc(Cl)c(Cl)c2)O[C@@H](n2ccc3c(N)ncnc32)[C@@H]1O [Formula I, Form I, (2R,3S,4R,5R)-5-(4-amino-7H-pyrrolo[2,3-d]pyrimidin-7-yl)-2-((R)-(3,4-dichlorophenyl)(hydroxy)methyl)-3-methyltetrahydrofuran-3,4-diol] | did not change the polymorphic form; also recorded: no change in form | ~0.5 | ~0.8 | – | –
4 | C[C@@]1(O)[C@@H]([C@H](O)c2ccc(Cl)c(Cl)c2)O[C@@H](n2ccc3c(N)ncnc32)[C@@H]1O.O=C(O)/C=C\C(=O)O [Formula IA, (2R,3S,4R,5R)-5-(4-amino-7H-pyrrolo[2,3-d]pyrimidin-7-yl)-2-((R)-(3,4-dichlorophenyl)(hydroxy)methyl)-3-methyltetrahydrofuran-3,4-diol, maleate salt] | – | – | – | ~1100 | –
5 | C[C@@]1(O)[C@@H]([C@H](O)c2ccc(Cl)c(Cl)c2)O[C@@H](n2ccc3c(N)ncnc32)[C@@H]1O.O=C(O)C(=O)O [Formula IC, (2R,3S,4R,5R)-5-(4-amino-7H-pyrrolo[2,3-d]pyrimidin-7-yl)-2-((R)-(3,4-dichlorophenyl)(hydroxy)methyl)-3-methyltetrahydrofuran-3,4-diol, oxalate salt] | – | – | – | < 300 | –
6 | C[C@@]1(O)[C@@H]([C@H](O)c2ccc(Cl)c(Cl)c2)O[C@@H](n2ccc3c(N)ncnc32)[C@@H]1O.O=P(O)(O)O [Formula ID, (2R,3S,4R,5R)-5-(4-amino-7H-pyrrolo[2,3-d]pyrimidin-7-yl)-2-((R)-(3,4-dichlorophenyl)(hydroxy)methyl)-3-methyltetrahydrofuran-3,4-diol, phosphate salt] | – | – | – | < 300 | –
7 | O=C1C(O)=C([C@H]2CC[C@H](c3ccc(Cl)cc3)CC2)C(=O)c2ccccc21 [Atovaquone] | – | – | – | – | solubility at 4 h (physchem; fassif): < 2 µg/mL
8 | C[C@@]1(O)[C@@H]([C@H](O)c2ccc(Cl)c(Cl)c2)O[C@@H](n2ccc3c(N)ncnc32)[C@@H]1O.Cl [Formula IB, Form I] | no change in Form | ~0.5 | ~0.1 | – | –
9 | CC(=O)CC(c1ccccc1)c1c(O)c2ccccc2oc1=O (stereo not shown) [Warfarin] | – | – | – | – | solubility at 4 h (physchem): 10 to 25 µg/mL (≈ 32.4 to 81.1 µM)
10 | C[C@@]1(O)[C@@H]([C@H](O)c2ccc(Cl)c(Cl)c2)O[C@@H](n2ccc3c(N)ncnc32)[C@@H]1O [Formula I, (2R,3S,4R,5R)-5-(4-amino-7H-pyrrolo[2,3-d]pyrimidin-7-yl)-2-((R)-(3,4-dichlorophenyl)(hydroxy)methyl)-3-methyltetrahydrofuran-3,4-diol] | – | – | – | – | IC50 [3]: 0.031 µM; IC50 (Granta-519 cells): 0.075 µM; average dose normalized AUC [4]: 3246 ng·kg·h/mL/mg; bioavailability ([4]; male, SD, blood, po): > 100%; body weight loss ([5]; 30 mg/kg orally QD, 19 days): 1%; tumor growth inhibition ([5]; 30 mg/kg orally QD, 19 days): 46%; body weight loss ([5]; 50 mg/kg orally QD, 16 days): 8%; tumor growth inhibition ([5]; 50 mg/kg orally QD, 16 days): 79%; inhibition of sDMA in tumor ([6]; 30 mg/kg orally QD): > 90%; sDMA in tumor ([6]; 50 mg/kg orally QD): no detectable sDMA
11 | C[C@@]1(O)[C@@H]([C@H](O)c2ccc(Cl)c(Cl)c2)O[C@@H](n2ccc3c(N)ncnc32)[C@@H]1O.Cl [Formula IB, Form III] | no change in form | ~2.8 | ~1 | – | –
